Data as given in doi:10.1101/356956v1 (biorxiv, 2018).

Target: T1, recombinant human caspase-3 (Homo sapiens, UniProt P42574)
T1 sequence (P42574 29-175): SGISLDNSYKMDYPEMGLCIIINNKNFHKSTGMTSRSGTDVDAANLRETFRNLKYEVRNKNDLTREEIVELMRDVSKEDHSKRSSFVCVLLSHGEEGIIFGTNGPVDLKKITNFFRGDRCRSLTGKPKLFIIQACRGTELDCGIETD
T1 sequence (P42574 176-277): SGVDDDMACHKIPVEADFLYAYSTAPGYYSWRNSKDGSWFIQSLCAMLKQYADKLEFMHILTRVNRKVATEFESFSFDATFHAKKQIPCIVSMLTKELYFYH
Assay: Caspase-Glo […] luminescence assay, dose-response
Format: biochemical

IC50	SMILES
10.4 ± 0.5 µM	O=C(O)c1cc(-c2ccc(F)cc2F)ccc1O [Diflunisal]
47 ± 6.07 µM	CC(C(=O)O)c1cccc(Oc2ccccc2)c1 (stereo not drawn) [Fenoprofen]
54.3 ± 0.6 µM	CC(C(=O)O)c1ccc2c(c1)Cc1cccnc1O2 (stereo not drawn) [Pranoprofen]
